These results are taken from PMC6028563, “Probing Substituents in the 1- and 3-Position: Tetrahydropyrazino-Annelated Water-Soluble Xanthine Derivatives as Multi-Target Drugs With Potent Adenosine Receptor Antagonistic Activity” (Frontiers in Chemistry, 2018).

What is called Ki is a measure of affinity in units of concentration, obtained from inhibition or displacement. A word on the IC50: it is the point on the concentration scale where inhibition reaches its midpoint.

One test has as its target T1, rat A1 AR (Rattus norvegicus, UniProt P25099).
T1 construct: A1 ARs of rat brain cortical membrane; from tissue; host or cells: rat brain cortex membranes
T1 sequence (P25099 1-326): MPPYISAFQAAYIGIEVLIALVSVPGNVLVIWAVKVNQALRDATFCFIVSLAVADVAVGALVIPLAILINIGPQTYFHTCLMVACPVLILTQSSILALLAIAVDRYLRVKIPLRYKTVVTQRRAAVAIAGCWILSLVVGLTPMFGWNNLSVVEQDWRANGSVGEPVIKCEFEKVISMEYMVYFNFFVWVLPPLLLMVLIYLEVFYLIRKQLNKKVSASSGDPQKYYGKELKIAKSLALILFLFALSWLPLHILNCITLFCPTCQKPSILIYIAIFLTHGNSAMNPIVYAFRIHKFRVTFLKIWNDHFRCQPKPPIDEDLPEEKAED
The experiment in a line: Radioligand binding assay at rat A1 AR (rat brain cortex) vs. [^3H]CCPA. As to conditions: rat (r); for Ki: rat brain cortex, n = 3; for inhibition at 1.5 µM: read-out: % inhibition of radioligand binding at indicated concentration, A1 vs. [^3H]CCPA, at 1,500 nM. Here is the method:
(§1) Membrane preparations and radioligand binding assays at rat A1 (rat brain cortex) and rat A2A ARs (rat brain striatum) were performed as previously described (Ozola et al., [2003]; Alnouri et al., [2015]). For assays at human A1, A2A, A2B, and A3 ARs, CHO cell membranes expressing one of the human AR subtypes were used as previously reported (Klotz et al., [1998]; Alnouri et al., [2015]; De Filippo et al., [2016]).
(§2) The synthesized tetrahydropyrazino[2,1-f ]purinediones 13–20 were evaluated in radioligand binding assays for their affinity to A1 ARs of rat brain cortical membrane and to A2A ARs of rat brain striatal membrane preparations. Selected compounds were further investigated for their affinity to human A1 and A2A ARs recombinantly expressed in Chinese hamster ovary (CHO) cells. All compounds were additionally investigated for their affinity to human A2B and A3 ARs recombinantly expressed in CHO cells to determine their AR subtype selectivity. […] It is well known that all xanthine derivatives lacking a ribose moiety, including tricyclic compounds, can only block ARs, but never act as AR agonists; therefore, additional functional studies were not required. […] Potent MAO-B inhibitors were additionally investigated for inhibition of human MAO-A to assess their selectivity. Results are presented in Tables 1–6, and data of standard ligands are included for comparison.

In another test the target is T2, rat A2A AR (Rattus norvegicus, UniProt P30543).
T2 construct: A2A ARs of rat brain striatal membrane preparations; from tissue; host or cells: rat brain striatum membranes
T2 sequence (P30543 whole entry): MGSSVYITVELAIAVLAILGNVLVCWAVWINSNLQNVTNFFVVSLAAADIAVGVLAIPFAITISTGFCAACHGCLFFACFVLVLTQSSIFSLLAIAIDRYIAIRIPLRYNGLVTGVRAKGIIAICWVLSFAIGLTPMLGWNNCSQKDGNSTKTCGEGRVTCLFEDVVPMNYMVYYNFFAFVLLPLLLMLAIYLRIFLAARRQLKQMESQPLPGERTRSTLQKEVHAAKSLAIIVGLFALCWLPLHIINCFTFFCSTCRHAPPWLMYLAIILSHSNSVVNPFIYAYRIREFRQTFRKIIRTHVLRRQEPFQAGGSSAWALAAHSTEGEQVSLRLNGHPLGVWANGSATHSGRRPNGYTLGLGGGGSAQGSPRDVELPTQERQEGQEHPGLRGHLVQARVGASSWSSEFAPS
Nature of the test: Radioligand binding assay at rat A2A AR (rat brain striatum) vs. [^3H]MSX-2. Conditions: rat (r); for % inhibition of radioligand binding at indicated concentration, A2A vs. [^3H]MSX-2: at 1,000 nM; for Ki: rat brain striatum, n = 3, read-out: Ki ± SEM, A2A vs. [^3H]MSX-2. On the procedure:
as §1, §2

Another test addresses T3, human A2B AR (Homo sapiens, UniProt P29275).
T3 construct: expressed in transfected cells; host or cells: CHO cells
T3 sequence (P29275 1-332): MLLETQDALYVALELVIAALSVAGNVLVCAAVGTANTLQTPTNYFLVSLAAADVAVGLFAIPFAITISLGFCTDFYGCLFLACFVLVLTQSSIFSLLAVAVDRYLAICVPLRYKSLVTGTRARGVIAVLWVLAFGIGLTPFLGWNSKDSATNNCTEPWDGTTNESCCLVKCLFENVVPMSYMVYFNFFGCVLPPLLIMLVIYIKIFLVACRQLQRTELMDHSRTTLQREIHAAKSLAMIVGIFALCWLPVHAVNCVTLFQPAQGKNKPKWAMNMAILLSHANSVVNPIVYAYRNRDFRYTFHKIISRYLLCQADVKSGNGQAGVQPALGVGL
Nature of the test: Radioligand binding assay at human A2B AR vs. [^3H]PSB-603. Conditions: for Ki: CHO cell membranes, n = 2 (n = 3 where marked a), read-out: Ki ± SEM, A2B vs. [^3H]PSB-603; for inhibition at 1 µM: at 1,000 nM, read-out: % inhibition of radioligand binding at indicated concentration, A2B vs. [^3H]PSB-603. Here is the method: as §1, §2

A further test deals with T4, human A3 AR (Homo sapiens, UniProt P0DMS8).
T4 construct: expressed in transfected cells; host or cells: CHO cells
T4 sequence (P0DMS8 1-318): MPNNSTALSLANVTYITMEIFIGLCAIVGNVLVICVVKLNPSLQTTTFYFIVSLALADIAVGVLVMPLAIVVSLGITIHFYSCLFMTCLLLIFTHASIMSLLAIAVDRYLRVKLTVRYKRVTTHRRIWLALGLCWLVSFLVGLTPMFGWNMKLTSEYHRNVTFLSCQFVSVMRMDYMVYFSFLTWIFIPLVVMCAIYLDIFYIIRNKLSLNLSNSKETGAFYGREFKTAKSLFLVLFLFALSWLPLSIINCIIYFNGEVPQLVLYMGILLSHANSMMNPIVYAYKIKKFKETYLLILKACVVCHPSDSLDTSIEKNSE
The experiment in a line: Radioligand binding assay at human A3 AR vs. [^3H]PSB-11. As to conditions: for Ki: CHO cell membranes, n = 2 (n = 3 where marked a), read-out: Ki ± SEM, A3 vs. [^3H]PSB-11; for inhibition at 10 µM: at 10,000 nM, read-out: % inhibition of radioligand binding at indicated concentration, A3 vs. [^3H]PSB-11. On the procedure: as §1, §2

The target of the next test is T5, recombinant human MAO-A (Homo sapiens, UniProt P21397).
T5 construct: purchased Sigma-Aldrich M7316; host or cells: baculovirus-infected insect cells
T5 sequence (P21397 1-527): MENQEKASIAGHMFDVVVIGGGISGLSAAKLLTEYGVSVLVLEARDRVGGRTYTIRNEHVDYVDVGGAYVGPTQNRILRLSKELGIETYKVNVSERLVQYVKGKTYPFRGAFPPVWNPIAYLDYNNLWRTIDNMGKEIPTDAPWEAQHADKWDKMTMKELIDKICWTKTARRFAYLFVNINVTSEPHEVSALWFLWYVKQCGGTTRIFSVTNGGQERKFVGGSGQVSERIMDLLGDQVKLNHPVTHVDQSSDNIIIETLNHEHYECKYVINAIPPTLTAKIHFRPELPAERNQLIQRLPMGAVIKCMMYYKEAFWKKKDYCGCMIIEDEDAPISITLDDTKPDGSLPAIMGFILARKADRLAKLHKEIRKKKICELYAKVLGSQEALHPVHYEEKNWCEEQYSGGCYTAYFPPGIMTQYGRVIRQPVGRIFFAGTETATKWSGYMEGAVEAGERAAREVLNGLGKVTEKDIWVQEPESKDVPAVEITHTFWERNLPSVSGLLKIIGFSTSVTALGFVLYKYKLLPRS
The experiment in a line: Monoamine oxidase assay (Amplex Red), MAO-A. Format: biochemical. As to conditions: for inhibition at 10 µM: at 10,000 nM, read-out: % inhibition at indicated concentration, Human MAO-A; for IC50: n = 3, read-out: IC50 ± SEM, Human MAO-A. Here is the method:
(§3) The determination of MAO-A and MAO-B inhibition was performed using commercially available recombinant human MAO-A and MAO-B enzymes expressed in baculovirus-infected insects sells (Sigma-Aldrich, M7316 and M7441) applying the commercially available Amplex® Red monoamine oxidase assay kit (Invitrogen A12214). The assays were performed as previously described. The determination of rat MAO-B inhibition was performed using mitochondrial-enriched fractions from male Sprague Dawley rat livers. […]

A further test deals with T6, recombinant human MAO-B (Homo sapiens, UniProt P27338).
T6 construct: purchased Sigma-Aldrich M7441; host or cells: baculovirus-infected insect cells
T6 sequence (P27338 1-520): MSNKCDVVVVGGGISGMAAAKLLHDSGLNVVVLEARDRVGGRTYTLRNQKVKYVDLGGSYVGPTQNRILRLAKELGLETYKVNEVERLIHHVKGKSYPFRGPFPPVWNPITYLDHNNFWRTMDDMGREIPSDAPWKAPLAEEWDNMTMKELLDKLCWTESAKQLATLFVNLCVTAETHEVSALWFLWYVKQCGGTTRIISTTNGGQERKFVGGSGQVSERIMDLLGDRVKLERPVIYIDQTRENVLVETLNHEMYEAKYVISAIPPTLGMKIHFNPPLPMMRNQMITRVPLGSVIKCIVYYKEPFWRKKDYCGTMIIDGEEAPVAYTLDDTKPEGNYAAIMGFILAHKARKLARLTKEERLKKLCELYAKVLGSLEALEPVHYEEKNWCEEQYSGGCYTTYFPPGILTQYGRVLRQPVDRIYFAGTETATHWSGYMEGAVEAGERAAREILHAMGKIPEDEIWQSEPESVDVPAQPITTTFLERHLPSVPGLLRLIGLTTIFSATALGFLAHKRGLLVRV
The experiment in a line: Monoamine oxidase assay (Amplex Red), MAO-B. It counts as biochemical. Conditions: for IC50: n = 3, read-out: IC50 ± SEM, Human MAO-B; for inhibition at 10 µM: at 10,000 nM (10 μM), read-out: % inhibition at indicated concentration, Human MAO-B. Here is the method: as §3

On to `Cn1c(=O)[nH]c(=O)c2c1nc1n2CCN(Cc2ccccc2Br)C1` [Compound 13a, 8-(2-bromobenzyl)-1-methyl-6,7,8,9-tetrahydropyrazino[2,1-f]purine-2,4(1H,3H)-dione], for which, on rat A1 AR, the Ki is > 1500 nM and the inhibition at 1.5 µM worked out at 17%. At rat A2A AR, the “% inhibition of radioligand binding at indicated concentration, A2A vs. [^3H]MSX-2” value (“% inhibition of radioligand binding” below) was -23% and the Ki was > 1000 nM. Also, on human A2B AR, the Ki was > 1000 nM and the inhibition at 1 µM was determined as 1%. The inhibition constant (Ki) on human A3 AR worked out at 14700 nM. Further, at recombinant human MAO-A, the inhibition at 10 µM stood at 13% and the half-inhibitory concentration (IC50) is > 10000 nM. Also, at recombinant human MAO-B, the IC50 stood at 4530 nM.
As for `Cn1c(=O)[nH]c(=O)c2c1nc1n2CCN(CCc2ccc(Cl)cc2Cl)C1` [Compound 13f, 8-(2,4-dichlorophenethyl)-1-methyl-6,7,8,9-tetrahydropyrazino[2,1-f]purine-2,4(1H,3H)-dione], the Ki was > 1500 nM on rat A1 AR, > 1000 nM at rat A2A AR, > 1000 nM on human A2B AR and 17200 nM on human A3 AR. Further, the inhibition at 1.5 µM on rat A1 AR is 5%. Further, the “% inhibition of radioligand binding” value at rat A2A AR came to 19%. Further, the inhibition at 1 µM on human A2B AR came to 1%. On recombinant human MAO-A, the inhibition at 10 µM was 13%. In addition, the IC50 is > 10000 nM at recombinant human MAO-A and 2880 nM on recombinant human MAO-B.
As for `CCn1c(=O)c2c(nc3n2CCN(Cc2cc(C(F)(F)F)cc(C(F)(F)F)c2)C3)n(CC)c1=O` [Compound 15q, 8-(3,5-bis(trifluoromethyl)benzyl)-1,3-diethyl-6,7,8,9-tetrahydropyrazino[2,1-f]purine-2,4(1H,3H)-dione], on rat A1 AR, the Ki was > 1500 nM and the inhibition at 1.5 µM was determined as 6%. At rat A2A AR, the “% inhibition of radioligand binding” value is given as 13% and the Ki was > 1000 nM. On human A2B AR, the Ki is > 1000 nM and the inhibition at 1 µM worked out at 7%. At human A3 AR, the Ki was > 10000 nM and the inhibition at 10 µM worked out at 40%. Moreover, on recombinant human MAO-B, the inhibition at 10 µM was 27% and the IC50 is > 10000 nM.
With `C#CCn1c(=O)c2c(nc3n2CCN(c2ccccc2F)C3)n(CC)c1=O` [Compound 20a, 1-ethyl-8-(2-fluorophenyl)-3-propargyl-6,7,8,9-tetrahydropyrazino[2,1-f]purine-2,4(1H,3H)-dione], the Ki at rat A1 AR is 1140 nM; on rat A2A AR it was 1380 nM; at human A2B AR, > 1000 nM; on human A3 AR it was 4270 nM. In addition, the inhibition at 1 µM at human A2B AR worked out at 8%. In addition, at recombinant human MAO-B, the inhibition at 10 µM stood at 29%. In addition, on recombinant human MAO-B, the IC50 is > 10000 nM.
Turning to `C#CCn1c(=O)c2c(nc3n2CCN(c2ccc(OC)c(OC)c2)C3)n(CC)c1=O` [Compound 20d, 8-(3,4-dimethoxyphenyl)-1-ethyl-3-propargyl-6,7,8,9-tetrahydropyrazino[2,1-f]purine-2,4(1H,3H)-dione], the Ki at rat A1 AR is 1670 nM; on rat A2A AR, 1580 nM; on human A2B AR, > 1000 nM; at human A3 AR it was 3640 nM. Further, the inhibition at 1 µM at human A2B AR turned out to be 8%. Also, at recombinant human MAO-B, the inhibition at 10 µM turned out to be 13%. For the same compound, the IC50 on recombinant human MAO-B is > 10000 nM.
As to `C#CCn1c(=O)c2c(nc3n2CCN(CCc2ccc(OC)cc2)C3)n(CC)c1=O` [Compound 20k, 1-ethyl-8-(4-methoxyphenethyl)-3-propargyl-6,7,8,9-tetrahydropyrazino[2,1-f]purine-2,4(1H,3H)-dione], the Ki was 1600 nM at rat A1 AR, 2700 nM on rat A2A AR, > 1000 nM on human A2B AR and > 10000 nM on human A3 AR. Also, the inhibition at 1 µM on human A2B AR was 10%. Further, the results for the inhibition at 10 µM on human A3 AR and on recombinant human MAO-B were 22% and 25%, respectively. Moreover, the 50% inhibitory concentration (IC50) at recombinant human MAO-B is > 10000 nM.
With `C#CCn1c(=O)c2c(nc3n2CCN(CCc2ccc(OC)c(OC)c2)C3)n(CC)c1=O` [Compound 20l], the Ki was 3800 nM on rat A1 AR, 7400 nM on rat A2A AR, > 1000 nM on human A2B AR and > 10000 nM at human A3 AR. In addition, the inhibition at 1 µM at human A2B AR came out at 9%. Moreover, the inhibition at 10 µM on human A3 AR turned out to be 12%; at recombinant human MAO-B it was 3%. The concentration for half-maximal inhibition (IC50) on recombinant human MAO-B was > 10000 nM.
